Test results taken from patent US12275720B2, “Small molecule inhibitors of galectin-3” (BRISTOL MYERS SQUIBB, priority 2020, dated 2025).

What follows are compounds tested against T1, hGalectin-3 (Homo sapiens, UniProt P17931) (assay: Gal-3 ELISA Assay (hGalectin-3 neutralization binding assay)). Conditions: ASF-coated plate, 15 nM hGalectin-3, read-out: hGal3 IC50 (ELISA).
T1 construct: made in house
T1 sequence (P17931 whole entry): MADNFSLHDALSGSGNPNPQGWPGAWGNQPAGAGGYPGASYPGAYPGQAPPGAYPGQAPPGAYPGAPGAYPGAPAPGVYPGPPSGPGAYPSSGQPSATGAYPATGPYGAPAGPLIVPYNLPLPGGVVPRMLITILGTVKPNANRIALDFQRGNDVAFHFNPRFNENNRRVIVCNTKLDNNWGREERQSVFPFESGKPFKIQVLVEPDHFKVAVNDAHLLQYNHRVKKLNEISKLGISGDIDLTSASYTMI

| Compound | IC50 [µM] |
| --- | --- |
| (2R, 3R, 4S, 5R, 6R)-4-(4-(3-fluorophenyl)-1H-1,2,3-triazol-1-yl)-N-((1S,2R,3R)-3-(4-(3-fluorophenyl)-1H-1,2,3-triazol-1-yl)-2-hydroxycyclohexyl)-5-hydroxy-6-(hydroxymethyl)-3-methoxytetrahydro-2H-pyran-2-carboxamide [Example 1b] | 16 |
| (2R, 3R, 4S, 5R, 6R)-4-(4-(3-fluorophenyl)-1H-1,2,3-triazol-1-yl)-N-((1S,2R,3R)-3-(4-(3-fluorophenyl)-1H-1,2,3-triazol-1-yl)-2-hydroxycyclohexyl)-5-hydroxy-6-(hydroxymethyl)-3-methoxytetrahydro-2H-pyran-2-carboxamide [Example 1a] | 0.7 |

The compounds below were run against His-tagged recombinant human Gal-3 (hGal-3) (Homo sapiens, UniProt P17931) (assay: Gal 3 HTRF Assay). Conditions: HTRF assay (default), 15 nM hGal-3, 15 nM B-ASF; read-out: hGal3 IC50 (HTRF).
Assay type: binding
Method: • ASSAY BUFFER Composition: 25 mM HEPES, 100 mM NaCl, 0.005% Tween 20, 0.05% BSA prepared in sterile water (all reagents from Sigma). Controls: • Positive Control: 100% DMSO (1 μL)+His-tagged hGal-3 (20 μL)+B-ASF (20 μL)+Anti-His Terbium Antibody (5 μL)+Strep d2 Antibody (5 μL). • Negative Control: 100% DMSO (1 μL)+His-tagged hGal-3(20 μL)+Anti His Terbium Antibody (5 μL)+Strep d2 Antibody (5 μL). Stocks Preparation:
PROTOCOL: The Gal-3 assays were performed in 384 white Opti plates in three replicates at room temperature with gentle shaking at 250-300 rpm From the original stocks, […] working stock concentrations of His-tagged recombinant human Gal-3 (hGal-3) and that of B-ASF were prepared. From the working stock, 20 μL of hGal-3 (15 nM) and 20 μL B-ASF (15 nM) were added to the plates. In Negative Control, only hGal-3 was added. A concentration range of 50× working stocks were prepared for the compounds in 100% DMSO. Aliquots of 1 μL of the compounds were added to the wells and pre-incubated with 20 μL hGal-3 per well for 30 minutes Then 20 μL B-ASF were added and incubated for another 1 hour. To detect the signal, 5 μL (final conc. of 1.0 nM) terbium labelled Anti-His antibody was added and incubated for 30 min followed by adding 5 μL (final conc. of 20 nM) Streptavidin d2 and incubation for another 1 hour. The assay signal was detected using HTRF screen protocol (Excitation wavelength=340 nm, emission wavelength=615 nm/665 nm) on Envision 2104 Multilabel Reader. Data analysed using Toolset and Curve Master. Results are reported in the experimental section (IC50 in μM). All IC50 reported were generated using the HTRF assay except when specifically indicated.

Chain of His-tagged recombinant human Gal-3 (hGal-3) (P17931 whole entry): as above

| IC50 [nM] | Compound |
| --- | --- |
| 23000 | (2R,3R,4S,5R,6R)-N-((1R,2S,3S)-3-(4-fluoro-1H-indazol-1-yl)-2-hydroxycyclohexyl)-4-(4-(3-fluorophenyl)-1H-1,2,3-triazol-1-yl)-5-hydroxy-6-(hydroxymethyl)-3-methoxytetrahydro-2H-pyran-2-carboxamide [Example 7b] |
| 30 | CO[C@@H]1[C@@H](n2cc(-c3cccc(F)c3)nn2)[C@@H](O)[C@@H](CO)O[C@H]1C(=O)N(C)[C@H]1COC[C@@H](n2cc(-c3cccc(F)c3)nn2)[C@@H]1O (single isomer, unassigned) [Example 21] |
| 20 | CO[C@@H]1[C@@H](n2cc(-c3cccc(F)c3)nn2)[C@@H](O)[C@@H](CO)O[C@H]1C(=O)N(C)[C@H]1CN(C)C[C@@H](n2cc(-c3cccc(F)c3)nn2)[C@@H]1O [Example 19, (2R,3R,4S,5R,6R)-4-(4-(3-fluorophenyl)-1H-1,2,3-triazol-1-yl)-N-((3S,4R,5R)-5-(4-(3-fluorophenyl)-1H-1,2,3-triazol-1-yl)-4-hydroxy-1-methylpiperidin-3-yl)-5-hydroxy-6-(hydroxymethyl)-3-methoxy-N-methyltetrahydro-2H-pyran-2-carboxamide] |
| 91 | (2R,3R,4S,5R,6R)-4-(4-(3-fluorophenyl)-1H-1,2,3-triazol-1-yl)-N-((1S,2R,3R)-3-(4-(3-fluorophenyl)-1H-1,2,3-triazol-1-yl)-2-hydroxycyclohexyl)-5-hydroxy-6-(hydroxymethyl)-3-methoxy-N-methyltetrahydro-2H-pyran-2-carboxamide [Example 10b] |
| 27000 | (2R,3R,4S,5R,6R)-4-(4-(3-fluorophenyl)-1H-1,2,3-triazol-1-yl)-N-((1R,2S,3S)-3-(5-(3-fluorophenyl)-1H-1,2,3-triazol-1-yl)-2-hydroxycyclohexyl)-5-hydroxy-6-(hydroxymethyl)-3-methoxytetrahydro-2H-pyran-2-carboxamide [Example 6a] |
| 130 | (2R,4R,5R,6R)-4-(4-(3-fluorophenyl)-1H-1,2,3-triazol-1-yl)-N-((3R,4S,5S)-5-(4-(3-fluorophenyl)-1H-1,2,3-triazol-1-yl)-4-hydroxypiperidin-3-yl)-5-hydroxy-6-(hydroxymethyl)-N-methyltetrahydro-2H-pyran-2-carboxamide [Example 17b] |
| 900 | (2R,3R,4S,5R,6R)-4-(4-(3-fluorophenyl)-1H-1,2,3-triazol-1-yl)-N-((1R,2S,3S)-3-(5-(3-fluorophenyl)-1H-1,2,3-triazol-1-yl)-2-hydroxycyclohexyl)-5-hydroxy-6-(hydroxymethyl)-3-methoxytetrahydro-2H-pyran-2-carboxamide [Example 6b] |
| 5200 | (2R,4R,5R,6R)-4-(4-(3-fluorophenyl)-1H-1,2,3-triazol-1-yl)-N-((3R,4S,5S)-5-(4-(3-fluorophenyl)-1H-1,2,3-triazol-1-yl)-4-hydroxypiperidin-3-yl)-5-hydroxy-6-(hydroxymethyl)-N-methyltetrahydro-2H-pyran-2-carboxamide [Example 17a] |
| 44 | (2R,3R,4S,5R,6R)-4-(4-(3-fluorophenyl)-1H-1,2,3-triazol-1-yl)-N-((3R,4S,5S)-5-(4-(3-fluorophenyl)-1H-1,2,3-triazol-1-yl)-4-hydroxypiperidin-3-yl)-5-hydroxy-6-(hydroxymethyl)-3-methoxy-N-methyltetrahydro-2H-pyran-2-carboxamide [Example 16b] |
| > 10000 | CO[C@@H]1[C@@H](n2cc(-c3cccc(F)c3)nn2)[C@@H](O)[C@@H](CO)O[C@H]1C(=O)N(C)[C@H]1COC[C@@H](n2ncc3cc(F)cnc32)[C@@H]1O [Example 22a, (2R,3R,4S,5R,6R)-N-((3S,4R,5R)-5-(5-fluoro-1H-pyrazolo[3,4-b]pyridin-1-yl)-4-hydroxytetrahydro-2H-pyran-3-yl)-4-(4-(3-fluorophenyl)-1H-1,2,3-triazol-1-yl)-5-hydroxy-6-(hydroxymethyl)-3-methoxy-N-methyltetrahydro-2H-pyran-2-carboxamide] |
| 5500 | (2R,3R,4S,5R,6R)-4-(4-(3-fluorophenyl)-1H-1,2,3-triazol-1-yl)-N-((1S,2R,3R)-3-(4-(3-fluorophenyl)-1H-1,2,3-triazol-1-yl)-2-hydroxycyclohexyl)-5-hydroxy-6-(hydroxymethyl)-3-methoxy-N-methyltetrahydro-2H-pyran-2-carboxamide [Example 10a] |
| 1800 | (2R,3R,4S,5R,6R)-4-(4-(3-fluorophenyl)-1H-1,2,3-triazol-1-yl)-N-((3R,4S,5S)-5-(4-(3-fluorophenyl)-1H-1,2,3-triazol-1-yl)-4-hydroxypiperidin-3-yl)-3,5-dihydroxy-6-(hydroxymethyl)-N-methyltetrahydro-2H-pyran-2-carboxamide [Example 18a] |
| 3500 | (2R,3R,4S,5R,6R)-4-(4-(3-fluorophenyl)-1H-1,2,3-triazol-1-yl)-N-((3R,4S,5S)-5-(4-(3-fluorophenyl)-1H-1,2,3-triazol-1-yl)-4-hydroxypiperidin-3-yl)-5-hydroxy-6-(hydroxymethyl)-3-methoxy-N-methyltetrahydro-2H-pyran-2-carboxamide [Example 16a] |
| 570 | CO[C@@H]1[C@@H](n2cc(-c3cccc(F)c3)nn2)[C@@H](O)[C@@H](CO)O[C@H]1C(=O)N[C@@H]1CCC[C@H](n2cc3c(F)cccc3n2)[C@H]1O (single isomer, unassigned) [Example 8] |
| 640 | (2R,3R,4S,5R,6R)-N-((1R,2S,3S)-3-(4-fluoro-1H-indazol-1-yl)-2-hydroxycyclohexyl)-4-(4-(3-fluorophenyl)-1H-1,2,3-triazol-1-yl)-5-hydroxy-6-(hydroxymethyl)-3-methoxytetrahydro-2H-pyran-2-carboxamide [Example 7a] |
| 50 | (2R,3R,4S,5R,6R)-4-(4-(3-fluorophenyl)-1H-1,2,3-triazol-1-yl)-N-((3R,4S,5S)-5-(4-(3-fluorophenyl)-1H-1,2,3-triazol-1-yl)-4-hydroxypiperidin-3-yl)-3,5-dihydroxy-6-(hydroxymethyl)-N-methyltetrahydro-2H-pyran-2-carboxamide [Example 18b] |
| 36000 | (2R,3R,4S,5R,6R)-4-(4-(3-fluorophenyl)-1H-1,2,3-triazol-1-yl)-N-((3R,4S,5S)-5-(4-(3-fluorophenyl)-1H-1,2,3-triazol-1-yl)-4-hydroxytetrahydro-2H-pyran-3-yl)-5-hydroxy-6-(hydroxymethyl)-3-methoxytetrahydro-2H-pyran-2-carboxamide [Example 20a] |

| Compound | IC50 [nM] |
| --- | --- |
| (2R,3R,4S,5R,6R)-4-(4-(3-fluorophenyl)-1H-1,2,3-triazol-1-yl)-N-((1S,2R,3R)-3-(3-(3-fluorophenyl)-1H-1,2,4-triazol-1-yl)-2-hydroxycyclohexyl)-5-hydroxy-6-(hydroxymethyl)-3-methoxytetrahydro-2H-pyran-2-carboxamide [Example 9b] | > 100000 |
| (2R, 3R, 4S, 5R, 6R)-4-(4-(3-fluorophenyl)-1H-1,2,3-triazol-1-yl)-N-((1S,2R,3R)-3-(4-(3-fluorophenyl)-1H-1,2,3-triazol-1-yl)-2-hydroxycyclohexyl)-5-hydroxy-6-(hydroxymethyl)-3-methoxytetrahydro-2H-pyran-2-carboxamide [Example 1a] | 290 |
| (2R,3R,4S,5R,6R)-4-(4-(3-fluorophenyl)-1H-1,2,3-triazol-1-yl)-N-((1S,2R,3R)-3-(3-(3-fluorophenyl)-1H-1,2,4-triazol-1-yl)-2-hydroxycyclohexyl)-5-hydroxy-6-(hydroxymethyl)-3-methoxytetrahydro-2H-pyran-2-carboxamide [Example 9a] | 500 |
| (2R,3R,4S,5R,6R)-4-(4-(3-fluorophenyl)-1H-1,2,3-triazol-1-yl)-N-((3R,4S,5S)-5-(4-(3-fluorophenyl)-1H-1,2,3-triazol-1-yl)-4-hydroxytetrahydro-2H-pyran-3-yl)-5-hydroxy-6-(hydroxymethyl)-3-methoxytetrahydro-2H-pyran-2-carboxamide [Example 20b] | 90 |
